Test results: patent US10526581B2, “Modulation of cardiac stem-progenitor cell differentiation, assays and uses thereof” (priority 2013, dated 2020)
“Also recorded” adds a separate entry of the source.

Tests used:
[1] = tested on: c-kit^pos eCSCs; test: cardiomyocyte differentiation of c-kit^pos eCSCs in differentiation medium (cTnI^pos cells, qRT-PCR); format: cell-based, rat; details: for number of myocyte differentiating (cTnI^pos) cells / transcription of myogenic lineage markers: differentiation medium (LIF withdrawal); for transcription of myogenic lineage markers: qRT-PCR; for differentiation of eCSCs into the cardiomyocyte lineage (myocyte specification): differentiation medium
Procedure: FIGS. 4(A-E). […] Nuclei were identified by DAPI in blue. Bar=50 μm. […] Data are Mean±SD of n=6/condition. […]
RNA was extracted using Qiagen RNeasy columns and was reverse transcribed using first strand cDNA synthesis with random or oligo-dT primers (Applied Biosystems). Residual amounts of DNA were removed by on-column DNase treatment using the RNase-Free DNase Set (Qiagen) during the RNeasy procedure. Quantitative RT-PCR was performed using SYBR Green (BioRad) on a MyIQ thermocycler (BioRad). The PCR-reaction included 2 μl of template cDNA, and 300 nM forward and reverse primers. PCR efficiency was evaluated by using a standard curve of five serial dilution points. Data were analysed using BioRad IQ software and mRNA was normalized to the housekeeping gene, GAPDH. All reactions were carried out in triplicate.

[2] = tested on: c-kit^pos CD45^neg eCSCs; test: BrdU incorporation proliferation assay of c-kit^pos eCSCs with cardiopoietic growth factors and Wnt or TGF-β modulators; format: cell-based, rat; details: in vitro
Procedure: (§1) c-kit^posCD45^neg eCSCs express functional receptors for these cardiopoetic factors (cGFs) (FIG. 4). In particular, both TGF-β1 and Wnt receptors are activated and signal to their known downstream effectors in eCSCs isolated from ISO injured hearts (FIG. 4). We thus directly tested in vitro the growth response of freshly isolated c-kit^pos CD45^neg eCSCs grown in limited serum (1% ESQ-FBS) to individual cGFs. Dose-response curves were performed to determine the optimal concentration for each cGF (FIG. 13A-H). […] These effects were confirmed by qRT-PCR of cardiomyocyte-specific mRNAs (FIG. 5).
(§2) Wnt/β-catenin and TGF-β/SMADs signaling play critical roles in the regulation of embryonic as well as different tissue-specific stem cell fate (21-23). In particular, these two signaling pathways have distinct functions in mammalian cardiogenesis (24-27). Thus, to extend our findings we have tested through gain and loss of function experiments the effects of Wnt/β-catenin and TGF-β/SMADs signaling pathways on c-kit^pos eCSC fate in vitro. […] To disrupt Wnt/ρ-catenin, c-kit^pos eCSCs were either treated with Dickkopf-1 (Dkk-1), an inhibitor of canonical Wnts or transfected with a specific short hairpin RNA for β-catenin (β-cat^shRNA). […] The positive and negative modulators of Wnt/β-catenin physiologically acted on their known molecular targets by respectively stabilizing or degrading β-catenin and its LEF/TCF-dependent transcriptional activity (FIG. 6). […] On the other hand, Dkk-1 increased c-kit^pos CSC myocyte specification (FIG. 5), even though its effect was not sufficient to produce a fully differentiated phenotype as indicated by the lack of cells which expressed abundant and organised sarcomeric structures (FIG. 5).

[3] = tested on: Nestin^pos progenitor cells from clonal-derived c-kit^pos eCSCs; test: neurogenic differentiation of Nestin^pos cells from clonal c-kit^pos eCSCs; format: cell-based, rat; details: differentiation medium, 7 days
Text: It has been previously shown that cardiac side population cells that express the neural progenitor marker, Nestin, can be induced to differentiate into the ectoderm layer, producing neurons and glial cells (15). We then purified for a population of Nestin^pos progenitor cells from clonal-derived c-kit^pos eCSCs. When placed into differentiation medium supplemented with Retinoic Acid or LIF for 7 days, we found up-regulation of GFAP, MATH2/NeuroD6, a neuron specific transcription factor (FIG. 3C), β-3 tubulin arrayed in filaments and bundles (FIG. 3C), neuron-specific enolase (FIG. 3C), acetylcholintransferase (FIG. 3C), doublecortin (DCX), and S-100β (FIG. 3C). Furthermore, after RA differentiation, cells had characteristics of neuronal dendrites, indicating a morphological change that resembled neurons (FIG. 3C).

[4] = tested on: c-kit^pos CD45^neg eCSCs; test: clonogenic assay of c-kit^pos eCSCs; format: cell-based, rat; details: in vitro
Procedure: as §1, §2

[5] = tested on: rats after ISO damage; details: rat, in vivo
[6] = tested on: hCSCs; test: stimulation of hCSCs with inflammatory cytokines, immunogenicity molecules; format: cell-based, human
Text: The human c-kit CSCs (hCSCs) from all the donors tested so far (n=8) expressed normal levels of the HLA class I and no detectable levels of HLA class II and the co-stimulatory molecules CD40, CD80 and CD 86 (see primary data example below)> they also fail to express CD 275 but express high levels of PD-L1 (CD274).

[7] = tested on: CSCs^GFP/TK and adult rat ventricular myocytes (ARVM); test: GCV in vitro on CSCs^GFP/TK growth and on co-cultured adult rat ventricular myocytes; format: cell-based
Procedure: c-kit^pos CSCs were grown in CSC growth medium consisting of Dulbecco's MEM/Ham's F12 (DMEM/F12; […] Millipore), bFGF (10 ng/ml; Peprotech), EGF (20 ng/ml; Peprotech), insulin-transferrin-selenite (ITS; […] Ganciclovir (GCV, 10^−5M) was added and cells were cultured for 3 and 7 days. Mouse c-kit^pos CSCs or c-kit^pos CSC-derived cardiospheres were cultured on glass chamber slides (BD Falcon), fixed with 4% PFA for 20 min, and then stained. […] For cardiomyocyte/CSC^GFP/TK co-culture assays, 3× wells/condition were fixed and stained to assess the number of apoptotic (TdT and caspase-3) cardiomyocytes (Kawaguchi et al., 2010). Cardiomyocytes were identified by co-staining for cTnI. The percentage of TdT-positive and caspase-3 positive cardiomyocytes was determined by counting 20 random fields at ×40 magnification for each well. Numbers were expressed as a percentage of TdT- or caspase-3 positive cardiomyocytes relative to the total number of cardiomyocytes counted. FITC or Texas Red-conjugated 2° Abs were used. Nuclei were stained with DAPI. Fluorescence was visualized and images acquired with confocal microscopy (Zeiss LSM 510 or 710).

[8] = tested on: rats with ISO+5-FU cardiomyopathy

Q: `O=C1Nc2cc(Br)ccc2/C1=C1/Nc2ccccc2/C1=N\O` [BIO, 6-bromoindirubin-3′-oxime] was tested. Which “number of myocyte differentiating (cTnI^pos) cells” value (from here on “number of myocyte differentiating”) [1] did it give?
A: significantly reduced

Q: And the “transcription of myogenic lineage markers” value (from here on “transcription”) [1]?
A: significantly reduced

Q: What about the “c-kit^pos eCSC proliferation (growth, expansion)” value (“c-kit^pos eCSC proliferation” for short) [2] of the same molecule?
A: stimulate

Q: How did the “c-kit^pos eCSC proliferation” value [2] turn out when HGF: cardiopoietic growth factor was run?
A: significantly increased

Q: How did the “expression of neural markers (GFAP, MATH2/NeuroD6, β-3 tubulin and others)” value [3] turn out when “LIF: supplement of the neural differentiation medium” was run?
A: up-regulation

Q: Which “differentiation of eCSCs into the cardiomyocyte lineage (myocyte specification)” value (from here on “differentiation”) [1] does the source give for TGF-β1: cardiopoietic growth factor here?
A: promoted differentiation

Q: What about the “number of myocyte differentiating” value [1] of the same molecule?
A: significantly induced

Q: What about the “transcription” value [1] of the same molecule?
A: significantly induced

Q: What about the “c-kit^pos eCSC clonogenicity” value [4] of the same molecule?
A: did not affect; also recorded: Neither BMP-2, BMP-4, TGF-β1 supplementation nor Smad2 knock-down affected

Q: What about the “c-kit^pos eCSC proliferation” value [2] of the same molecule?
A: did not affect; also recorded: Neither BMP-2, BMP-4, TGF-β1 supplementation nor Smad2 knock-down affected

Q: With `O=c1[nH]cc(F)c(=O)[nH]1` [5-FU, 5-fluorouracil] as the molecule, how does the “toxic effects of the 5-FU regime” value [5] read?
A: did not cause any cellular or functional cardiac or extra-cardiac toxic effects

Q: How did the “c-kit^pos eCSC proliferation” value [2] turn out when FGF-2: cardiopoietic growth factor was run?
A: significantly increased

Q: For IFNγ: inflammatory cytokine, which “expression of HLA class I and class II on hCSCs” value [6] is on record?
A: significantly enhanced

Q: What about the “expression of the co-stimulatory molecules CD40, CD80 and CD 86 on hCSCs” value [6] of the same molecule?
A: does not induce

Q: For `Nc1nc(O)c2ncn(COC(CO)CO)c2n1` [GCV, Ganciclovir], which “adult rat ventricular myocyte (ARVM) apoptosis” value ([7]; GCV 10^−5 M, alone or co-cultured with CSC^GFP/TK) is on record?
A: does not cause any relevant effect

Q: What about the “growth of Lenti-GFP/TK-transfected CSCs (CSCs^GFP/TK)” value ([7]; GCV 10^−5 M, in vitro) of the same molecule?
A: growth arrest

Q: What about the “survival of adult rat ventricular CMs cultured with CSCs^GFP/TK” value ([7]; GCV at a concentration sufficient to kill the CSCs^GFP/TK) of the same molecule?
A: does not affect survival

Q: What about the “effect of GCV treatment on recovered cellular and functional parameters” value ([8]; ISO+5-FU+CSCs^GFP/TK group) of the same molecule?
A: dramatic reversal of all the recovered cellular and functional parameters

Q: And the “adverse effects of GCV treatment” value ([8]; rat, in vivo)?
A: did not cause any histological or functional adverse effects

Q: For IGF-1: cardiopoietic growth factor, which “c-kit^pos eCSC proliferation” value [2] is on record?
A: significantly increased

B1: BMP-10: cardiopoietic growth factor (protein, UniProt O95393 317-424, looked up)
Bone morphogenetic protein 10: NAKGNYCKRTPLYIDFKEIGWDSWIIAPPGYEAYECRGVCNYPLAEHLTPTKHAIIQALVHLKNSQKASKACCVPTKLEPISILYLDKGVVTYKFKYEGMAVSECGCR
Q: Which results are given for B1?
A: number of myocyte differentiating (cTnI^pos) cells [1]: significantly induced; transcription of myogenic lineage markers [1]: significantly induced

B2: Wnt5a: non-canonical Wnt, cardiopoietic growth factor (protein, UniProt P41221 62-380, looked up)
Protein Wnt-5a: IIGAQPLCSQLAGLSQGQKKLCHLYQDHMQYIGEGAKTGIKECQYQFRHRRWNCSTVDNTSVFGRVMQIGSRETAFTYAVSAAGVVNAMSRACREGELSTCGCSRAARPKDLPRDWLWGGCGDNIDYGYRFAKEFVDARERERIHAKGSYESARILMNLHNNEAGRRTVYNLADVACKCHGVSGSCSLKTCWLQLADFRKVGDALKEKYDSAAAMRLNSRGKLVQVNSRFNSPTTQDLVYIDPSPDYCVRNESTGSLGTQGRLCNKTSEGMDGCELMCCGRGYDQFKTVQTERCHCKFHWCCYVKCKKCTEIVDQFVCK
Q: How did the “differentiation” value [1] turn out when B2 was run?
A: promoted differentiation

Q: And the “c-kit^pos eCSC clonogenicity” value [4]?
A: did not affect

Q: And the “c-kit^pos eCSC proliferation” value [2]?
A: did not affect

B3: Wnt3a: soluble Wnt-3a, canonical Wnt growth factor (protein, UniProt P56704 19-352, looked up)
Protein Wnt-3a: SYPIWWSLAVGPQYSSLGSQPILCASIPGLVPKQLRFCRNYVEIMPSVAEGIKIGIQECQHQFRGRRWNCTTVHDSLAIFGPVLDKATRESAFVHAIASAGVAFAVTRSCAEGTAAICGCSSRHQGSPGKGWKWGGCSEDIEFGGMVSREFADARENRPDARSAMNRHNNEAGRQAIASHMHLKCKCHGLSGSCEVKTCWWSQPDFRAIGDFLKDKYDSASEMVVEKHRESRGWVETLRPRYTYFKVPTERDLVYYEASPNFCEPNPETGSFGTRDRTCNVSSHGIDGCDLLCCGRGHNARAERRREKCRCVFHWCCYVSCQECTRVYDVHTCK
Q: With B3 as the molecule, how does the “number of myocyte differentiating” value [1] read?
A: significantly reduced

Q: And the “transcription” value [1]?
A: significantly reduced

Q: And the “c-kit^pos eCSC clonogenicity” value [4]?
A: most effective

Q: What about the “c-kit^pos eCSC clonogenicity” value ([4]; listed as Wnt-3a) of the same molecule?
A: stimulate

Q: And the “c-kit^pos eCSC proliferation” value [2]?
A: significantly increased

Q: What about the “c-kit^pos eCSC proliferation” value ([2]; listed as Wnt-3a) of the same molecule?
A: stimulate

B4: BMP-4: cardiopoietic growth factor (protein, UniProt P12644 293-408, looked up)
Bone morphogenetic protein 4: SPKHHSQRARKKNKNCRRHSLYVDFSDVGWNDWIVAPPGYQAFYCHGDCPFPLADHLNSTNHAIVQTLVNSVNSSIPKACCVPTELSAISMLYLDEYDKVVLKNYQEMVVEGCGCR
Q: For B4, which “differentiation” value [1] is on record?
A: promoted differentiation

Q: What about the “number of myocyte differentiating” value [1] of the same molecule?
A: significantly induced

Q: And the “transcription” value [1]?
A: significantly induced

Q: And the “c-kit^pos eCSC clonogenicity” value [4]?
A: did not affect; also recorded: Neither BMP-2, BMP-4, TGF-β1 supplementation nor Smad2 knock-down affected

Q: And the “c-kit^pos eCSC proliferation” value [2]?
A: did not affect; also recorded: Neither BMP-2, BMP-4, TGF-β1 supplementation nor Smad2 knock-down affected

B5: Dkk-1: Dickkopf-1, an inhibitor of canonical Wnts (protein, UniProt O94907 32-266, looked up)
Dickkopf-related protein 1: TLNSVLNSNAIKNLPPPLGGAAGHPGSAVSAAPGILYPGGNKYQTIDNYQPYPCAEDEECGTDEYCASPTRGGDAGVQICLACRKRRKRCMRHAMCCPGNYCKNGICVSSDQNHFRGEIEETITESFGNDHSTLDGYSRRTTLSSKMYHTKGQEGSVCLRSSDCASGLCCARHFWSKICKPVLKEGQVCTKHRRKGSHGLEIFQRCYCGEGLSCRIQKDHHQASNSSRLHTCQRH
Q: B5 was tested. Which “differentiation” value [1] did it give?
A: increased

Q: And the “c-kit^pos eCSC clonogenicity” value [4]?
A: significant decrease

Q: What about the “c-kit^pos eCSC proliferation” value [2] of the same molecule?
A: significant decrease
